This is an account of results in patent US10173988B2, “N2-(3,4-dimethylphenyl)-6-((4-(p-tolyl)piperazin-1-yl)methyl)-1,3,5-triazine-2,4-diamine” (GLUCOX BIOTECH AB, priority 2015, dated 2019).

Series [1] addresses Nox4 (Homo sapiens (Human), UniProt Q9NPH5). Nature of the series: Nox4 whole cell assay (Amplex red, hydrogen peroxide). In kind it is cell-based. The settings on record: HEK (CJ Nox4) cells stably expressing Nox4. The method, then: Cells: HEK (CJ Nox4) stably expressing Nox4 was purchased from Redoxis AB (Lund). The adherent cells were cultivated in RPMI 1640 with L-Glutamine were supplemented with FBS (10%), penicillin (10 U/ml) streptomycin (100 μg/ml) and neomycin (200 μg/ml) at 37° C. in air with 5% CO^2.
Hydrogen peroxide produced by Nox4 was measured (fluorescence emission: 590 and excitation: 544) using Amplex red (Molecular Probes) in Fluorescan Ascent plate reader Type 374. Cells were collected from cultures by Trypsin mediated detachment of adherent cells. Cells were seeded in 96-well plates at a density of 50 000 cells in […] assay volume. […] Nox4 activity was measured up to 100 min with readings every minute. […] Y-axes: turnover of hydrogen peroxide; x-axes: concentration of inhibitor. Inhibitors were diluted in a compound plate in DMSO (100%) then transferred to Hanks buffer solution and in assay plate DMSO were 2% in all the wells.
Compounds (Nox inhibitors) were diluted at 3× working concentration and titrated from 200 μM to 0.003 μM in 11 steps.

Series [2] can be described thus: Caco-2 permeability assay. In kind it is in vitro ADME. The note with it: human, Caco-2; for efflux ratio at 60 min: Papp (b-a) divided by Papp (a-b); for Papp A→B at 60 min: apical to basolateral; for Papp A→B at 60 min / Papp B→A at 60 min: pH 7.4, 37° C., test concentration 1 to 10 μM; for Papp B→A at 60 min: basolateral to apical. As to the method: (§1) Caco-2 membrane permeability was performed in accordance with published protocols. [Hubatch] Caco-2 cell monolayers (passage 94-105) were grown on permeable filter support and used for transport study on day 21 after seeding. Prior to the experiment a drug solution of 10 μM was prepared and warmed to 37° C.
(§2) The Caco-2 filters were washed with prewarmed HBSS prior to the experiment, and thereafter experiment was started by applying the donor solution on the apical side or basolateral side, depending on which direction that was monitored. The transport experiments were carried out at pH 7.4 in both the apical and basolateral chambers. The experiments were performed at 37° C. and with a stirring rate of 500 rpm. The receiver compartment was sampled at 15, 30, and 60 min, and at 60 min also a final sample from the donor chamber was taken in order to calculate the mass balance of the compound. Directly after the termination of experiment the filter inserts were washed with prewarmed HBSS and the membrane integrity was checked. This was performed by trans-epithelial electrical resistance (TEER) measurement. The experiment was validated by inclusion of the para-cellular marker 14Cmannitoland monitoring its permeability during the experiments. Mannitol is a para-cellular marker used for cell monolayer integrity measurements.
(§3) Test compounds were thus added to either the apical or basolateral side of the Caco-2 cell layer, to measure permeability in the absorptive (apical to basolateral, Papp (a-b)) or secretive (basolateral to apical Papp (a-b) directions, respectively. The efflux is calculated as Papp (b-a) divided by Papp (a-b). The results are presented in Table 3.
For orientation: Caco-2 monolayers are a common model of the intestinal barrier.

Series [3] concerns Caco-2 cell monolayers. Nature of the series: Caco-2 permeability assay. Type of series: in vitro ADME. The note with it: mass balance. The method, then:
as §1, §2, §3

The target in series [4] is human Nox1 (Homo sapiens (Human), UniProt Q9Y5S8). Description: Nox1 whole cell luminescence assay (luminol, PMA-stimulated). In kind it is cell-based. The note with it: CHO cells stably expressing human Nox1. The method, then:
CHO cells modified to stably express human Nox1 were grown in DMEM/F12 gibco 31331 containing 10% FBS and 1% pen/strep at 37° C. in air with 5% CO2. Cells were collected from cultures by Trypsin mediated detachment of adherent cells.
A luminescence assay was used that measures the production of reactive oxygen species in whole cells. Luminol reacts with superoxide and emits light and light is measured with luminometer (Synergy/2 microplate reader, BioTek).
Inhibitors were diluted in a compound plate in DMSO (100%) then transferred to Hanks buffer solution and in assay plate DMSO were 2% in all the wells.
Assay procedure, final well volume 100 μl, 96-well plate: Inhibitors (20 μl) were added, then cell suspension was (100 000 cells/well), incubate 37° C. for 30 min, add PMA (0.9 μM/well) to Luminol reaction mix (Luminol 0.1 mM/well and HRP 3.2 U/well) then this stimulation mix into wells. The plate were then immediately read (steps 5 min each reading) and for 1 h. Data was calculated for the linear part of the curve and IC50 determined.
Compounds (Nox inhibitors) were diluted at 3× working concentration and titrated from 200 μM to 0.003 μM in 11 steps

The target of series [5] is Nox2 (Homo sapiens (Human), UniProt P04839). Nature of the series: Nox2 whole cell assay in isolated neutrophils (isoluminol, PMA-stimulated). Type of series: cell-based. The note with it: PMA 30 ng/ml. The source says: Cells: Human blood was purchased in buffy coat, prepared the same day for isolation of neutrophils, from Labjoy AB, Lund, Sweden. Blood components were separated by density gradient centrifugation using Ficoll-Paque Plus. Plasma, PBMCs and Ficoll were removed before erythrocytes were removed by dextran sedimentation. Remaining erythrocytes were lyses before neutrophils were washed and counted. Isolated neutrophils were kept on ice resuspended in HBSS without Mg and Ca until assayed.
Buffers: The isoluminol buffer contained Isoluminol (0.175 mg/ml) and HRP fraction II (1.75 U/ml). The buffer was prepared by diluting these ingredients at 4× working concentration in HBSS.
Procedures: Compounds (Nox inhibitors) were diluted at 4× working concentration and titrated from 100 μM to 0.006 μM in 1:4 steps. PMA was diluted in Isoluminol buffer at 4× working concentration for a final concentration of 30 ng/ml. […] 25 μl diluted compound or control/well were added to a white 96-well plate. 25 μl/well of PMA diluted in Isoluminol buffer was added to each well. To non-stimulated control wells only Isoluminol buffer was added. Neutrophils were washed and resuspended at 2×10^6 cells/ml in HBSS with Mg and Ca just before adding 50 μl of the neutrophil cell suspension/well, which was followed by immediate initiation of luminescence measurement. Luminescence was measured using a FluoStar Optima (BMG Labtech). Graphs were performed using Prism 5 for Mac OS X (Prism 5.0 Software, San Diego Calif. USA).

SMILES strings stand for the structures.

Chain of Nox2 (P04839 2-570): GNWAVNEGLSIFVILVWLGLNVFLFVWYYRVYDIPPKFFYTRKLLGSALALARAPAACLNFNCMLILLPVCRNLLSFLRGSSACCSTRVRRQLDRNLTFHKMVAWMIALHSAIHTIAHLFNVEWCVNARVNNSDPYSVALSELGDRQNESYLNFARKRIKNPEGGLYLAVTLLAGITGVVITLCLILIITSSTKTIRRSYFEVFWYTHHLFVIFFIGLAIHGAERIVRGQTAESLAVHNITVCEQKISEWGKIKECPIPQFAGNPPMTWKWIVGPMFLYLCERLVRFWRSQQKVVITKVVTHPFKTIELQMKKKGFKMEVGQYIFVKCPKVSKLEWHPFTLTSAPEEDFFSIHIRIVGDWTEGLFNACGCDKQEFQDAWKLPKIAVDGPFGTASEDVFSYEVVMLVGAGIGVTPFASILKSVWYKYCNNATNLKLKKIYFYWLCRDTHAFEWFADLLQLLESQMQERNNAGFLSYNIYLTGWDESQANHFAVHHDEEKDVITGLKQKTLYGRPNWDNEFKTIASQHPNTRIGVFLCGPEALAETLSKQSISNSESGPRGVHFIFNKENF
Chain of Nox2 (P13498 2-195 partner): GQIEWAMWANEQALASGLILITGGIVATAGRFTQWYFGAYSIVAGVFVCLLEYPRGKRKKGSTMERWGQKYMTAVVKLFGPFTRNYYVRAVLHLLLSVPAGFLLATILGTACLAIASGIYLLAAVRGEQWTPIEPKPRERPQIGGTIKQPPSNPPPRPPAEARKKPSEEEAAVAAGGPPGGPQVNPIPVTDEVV
Chain of human Nox1 (Q9Y5S8 whole entry): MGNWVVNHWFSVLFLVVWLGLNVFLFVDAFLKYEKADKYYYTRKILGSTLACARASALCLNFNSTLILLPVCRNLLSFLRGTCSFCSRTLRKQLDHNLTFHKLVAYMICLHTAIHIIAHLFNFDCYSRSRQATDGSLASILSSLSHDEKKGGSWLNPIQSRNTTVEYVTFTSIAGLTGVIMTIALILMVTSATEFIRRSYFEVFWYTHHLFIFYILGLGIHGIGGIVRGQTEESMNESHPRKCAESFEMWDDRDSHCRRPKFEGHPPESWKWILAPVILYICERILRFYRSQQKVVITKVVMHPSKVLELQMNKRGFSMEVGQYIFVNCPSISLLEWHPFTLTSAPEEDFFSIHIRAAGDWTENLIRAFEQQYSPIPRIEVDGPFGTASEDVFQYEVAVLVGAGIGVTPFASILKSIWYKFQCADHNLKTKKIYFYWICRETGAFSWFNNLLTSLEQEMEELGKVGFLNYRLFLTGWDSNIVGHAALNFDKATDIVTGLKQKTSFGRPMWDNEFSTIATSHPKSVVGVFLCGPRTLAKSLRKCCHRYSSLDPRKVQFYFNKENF
Chain of human Nox1 (P13498 2-195 partner): as the sequence (P13498 2-195 partner) above
Chain of Nox4 (Q9NPH5 whole entry, species assumed): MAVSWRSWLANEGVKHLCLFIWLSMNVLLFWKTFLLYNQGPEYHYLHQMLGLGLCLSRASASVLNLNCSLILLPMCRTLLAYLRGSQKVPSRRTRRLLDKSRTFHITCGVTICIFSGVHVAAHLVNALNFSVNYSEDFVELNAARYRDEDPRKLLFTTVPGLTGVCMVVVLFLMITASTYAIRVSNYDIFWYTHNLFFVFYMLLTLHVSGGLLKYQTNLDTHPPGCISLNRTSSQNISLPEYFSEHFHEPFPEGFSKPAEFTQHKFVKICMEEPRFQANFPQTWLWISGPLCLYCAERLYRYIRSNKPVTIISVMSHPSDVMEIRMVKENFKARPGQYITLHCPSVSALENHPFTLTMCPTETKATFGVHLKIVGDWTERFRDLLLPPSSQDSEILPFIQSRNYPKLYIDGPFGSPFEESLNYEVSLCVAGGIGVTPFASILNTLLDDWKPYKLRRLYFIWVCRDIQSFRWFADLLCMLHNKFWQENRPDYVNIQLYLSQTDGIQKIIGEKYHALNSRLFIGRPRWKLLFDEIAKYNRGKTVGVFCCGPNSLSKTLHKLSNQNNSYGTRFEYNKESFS
Chain of Nox4 (P13498 2-195 partner, species assumed): as the sequence (P13498 2-195 partner) above

What is called IC50 is the concentration needed to halve the response being measured. For orientation: efflux ratio means the permeability from basolateral to apical divided by that in the opposite direction, in the common usage. Broadly, the Papp A→B is how fast a substance crosses the layer from the apical side. Read a low Papp A→B as slow passage. As usually defined, the Papp B→A is how fast a substance crosses the layer from the basolateral side. For the compound `COc1cccc(N2CCN(Cc3nc(N)nc(Nc4ccc(C)c(C)c4)n3)CC2)c1` [A, N^2-(3,4-dimethylphenyl)-6-((4-(3-methoxyphenyl)piperazin-1-yl)methyl)-1,3,5-triazine-2,4-diamine], the 50% inhibitory concentration (IC50) in series [1] came out at 1.68 µM; in series [4], 66 µM; in series [5] it was 1.68 µM. The efflux ratio at 60 min in series [2] was found to be 1. The same compound came in with a Papp A→B at 60 min in series [2] of 35 ± 4 ×10⁻⁶ cm/s. In series [2], this compound came in with a basolateral-to-apical permeability (Papp B→A) at 60 min of 34 ± 4 ×10⁻⁶ cm/s. Moreover, the figures for the MR in series [3] (a-b direction) and in series [3] (b-a direction) were 17% and 12%, respectively.
`COc1cccc(N2CCN(Cc3nc(N)nc(Nc4ccc(C)c(Cl)c4)n3)CC2)c1` [B, N^2-(3-chloro-4-methylphenyl)-6-((4-(3-methoxyphenyl)piperazin-1-yl)methyl)-1,3,5-triazine-2,4-diamine]: the concentration for half-maximal inhibition (IC50) was determined as 0.84 µM in series [1], 22 µM in series [4] and 17 µM in series [5]. Besides, the efflux ratio at 60 min in series [2] worked out at 54. This compound also gave an apical-to-basolateral permeability (Papp A→B) at 60 min in series [2] of 0.8 ± 0.2 ×10⁻⁶ cm/s. In series [2], this compound had a Papp B→A at 60 min of 43 ± 5 ×10⁻⁶ cm/s. Also, the MR in series [3] (a-b direction) and in series [3] (b-a direction) was 41% each time.
As to `Cc1cccc(N2CCN(Cc3nc(N)nc(Nc4ccc(C)c(C)c4)n3)CC2)c1` [C, N^2-(3,4-dimethylphenyl)-6-((4-(m-tolyl)piperazin-1-yl)methyl)-1,3,5-triazine-2,4-diamine], the IC50 in series [1] stood at 1.68 µM; in series [4], 162 µM; in series [5], 59 µM. Besides, the efflux ratio at 60 min in series [2] is 37. In series [2], this compound had a Papp A→B at 60 min of 2.4 ± 0.1 ×10⁻⁶ cm/s. In addition, the basolateral-to-apical permeability (Papp B→A) at 60 min in series [2] was 89 ± 27 ×10⁻⁶ cm/s. The results for the MR in series [3] (a-b direction) and in series [3] (b-a direction) were 37% and 67%, respectively.
Take `Cc1ccc(Nc2nc(N)nc(CN3CCN(c4ccc(Cl)cc4)CC3)n2)cc1C` [D, 6-((4-(4-chlorophenyl)piperazin-1-yl)methyl)-N^2-(3,4-dimethylphenyl)-1,3,5-triazine-2,4-diamine]: the values for the IC50 in series [1], in series [4] and in series [5] were 1.68 µM, 200 µM and 15 µM, respectively. Further, in series [2], the efflux ratio at 60 min was found to be 17. In series [2], this compound showed an apical-to-basolateral permeability (Papp A→B) at 60 min of 1.9 ± 0.2 ×10⁻⁶ cm/s. The compound further returned a Papp B→A at 60 min in series [2] of 33 ± 11 ×10⁻⁶ cm/s. Further, the figures for the MR in series [3] (a-b direction) and in series [3] (b-a direction) were 40% and 16%, respectively.
In series [2], `Cc1ccc(N2CCN(Cc3nc(N)nc(Nc4ccc(C)c(C)c4)n3)CC2)cc1` [inventive, N^2-(3,4-dimethylphenyl)-6-((4-(p-tolyl)piperazin-1-yl)methyl)-1,3,5-triazine-2,4-diamine] registered an apical-to-basolateral permeability (Papp A→B) at 60 min of 12 ± 1.6 ×10⁻⁶ cm/s and a basolateral-to-apical permeability (Papp B→A) at 60 min of 43 ± 5.8 ×10⁻⁶ cm/s. The compound further came in with an MR in series [3] (a-b direction) of 13%. In addition, in series [3] (b-a direction), the MR is reported as 14%. Also, the IC50 in series [4] was 66 µM.
